Measured values reported in PubChem BioAssay AID540340 (Sanford-Burnham Center for Chemical Genomics, 2011).

Biological target: C-C chemokine receptor type 6 (Homo sapiens) (UniProt P51684)
Experiment: CXCR5 receptor antagonists, SAR follow-up, selectivity assay for CCR6 antagonist project, cell-based, beta-arrestin, luminescence, CHO-K1 PathHunter (AID 540340)
Settings: CCR6 beta-arrestin antagonism, AID540334

C-C chemokine receptor type 6 (Homo sapiens), sequence (P51684 whole entry, looked up): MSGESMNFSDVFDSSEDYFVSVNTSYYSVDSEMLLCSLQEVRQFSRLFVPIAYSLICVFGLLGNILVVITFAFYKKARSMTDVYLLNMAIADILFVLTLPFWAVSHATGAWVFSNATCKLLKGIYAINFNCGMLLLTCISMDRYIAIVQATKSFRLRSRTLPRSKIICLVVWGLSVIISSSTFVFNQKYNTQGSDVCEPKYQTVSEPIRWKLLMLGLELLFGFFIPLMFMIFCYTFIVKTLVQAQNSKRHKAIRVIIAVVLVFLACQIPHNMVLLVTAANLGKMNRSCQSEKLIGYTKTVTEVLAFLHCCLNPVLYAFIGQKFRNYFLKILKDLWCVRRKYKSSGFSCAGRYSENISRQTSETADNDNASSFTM

Compound	IC50
O=C1C2C3C=CC(CO)(O3)C2C(=O)N1c1ccccc1-c1ccccc1 (stereo unspecified)	> 66.6 µM
CCCCCCCCCCCCC/C=C/[C@@H](O)[C@@H](N)CO	20.9 µM
Cn1c(O)c(C2=NNC(c3ccc(Cl)cc3)C2)c(=O)n(C)c1=O (stereo unspecified)	5.84 µM
CN1CCc2nc(SCc3ccc(Cl)cc3)c(C#N)c(-c3cccs3)c2C1	> 66.6 µM
C/C=C(\C)C(=O)OC1[C@H](OC(C)=O)C2(CO)C(CC1(C)C)C1=CCC3C4(C)CCC(O[C@@H]5O[C@H](C(=O)O)[C@@H](O[C@@H]6O[C@H](CO)[C@@H](O)[C@H](O)[C@H]6O)[C@H](O)[C@H]5O[C@H]5O[C@H](CO)[C@@H](O)[C@H](O)[C@H]5O)[C@](C)(CO)C4CCC3(C)[C@]1(C)C[C@H]2O (stereo partly specified)	7.82 µM
Cc1cccc2c1N(CCCOc1ccc(C(C)(C)C)cc1)C(=O)C2=O	> 66.6 µM
